Assay: xn = mol fraction of the nth substance listed
Conditions: 100 kPa, Liquid

CCOS(=O)(=O)[O-].CC[NH+]=C(N(C)C)N(C)C [2-ethyl-1,1,3,3-tetramethylguanidinium ethyl sulfate] + CCO
Conditions | mass density [kg/m3] | viscosity [mPa·s]
293.15 K, x1 = 0.0998 | 910.21 | 2.824
293.15 K, x1 = 0.2003 | 984.3 | 5.826
293.15 K, x1 = 0.3006 | 1033.78 | 11.42
293.15 K, x1 = 0.4016 | 1069.61 | 22.83
293.15 K, x1 = 0.498 | 1095.76 | 40.88
293.15 K, x1 = 0.5996 | 1117.54 | 73.39
293.15 K, x1 = 0.6976 | 1134.51 | 127.4
293.15 K, x1 = 0.7969 | 1148.58 | 213.6
293.15 K, x1 = 0.9008 | 1160.83 | 385.6
293.15 K, x1 = 1 | 1170.76 | 673.4
298.15 K, x1 = 0.0998 | 906.2 | 2.546
298.15 K, x1 = 0.2003 | 980.34 | 5.136
298.15 K, x1 = 0.3006 | 1030 | 9.821
298.15 K, x1 = 0.4016 | 1065.96 | 19.07
298.15 K, x1 = 0.498 | 1092.12 | 33.16
298.15 K, x1 = 0.5996 | 1113.91 | 57.2
298.15 K, x1 = 0.6976 | 1130.91 | 95.44
298.15 K, x1 = 0.7969 | 1145.02 | 154
298.15 K, x1 = 0.9008 | 1157.3 | 264.4
298.15 K, x1 = 1 | 1167.24 | 441.5
303.15 K, x1 = 0.0998 | 902.18 | 2.307
303.15 K, x1 = 0.2003 | 976.55 | 4.559
303.15 K, x1 = 0.3006 | 1026.22 | 8.524
303.15 K, x1 = 0.4016 | 1062.27 | 16.15
303.15 K, x1 = 0.498 | 1088.47 | 27.11
303.15 K, x1 = 0.5996 | 1110.31 | 45.41
303.15 K, x1 = 0.6976 | 1127.33 | 73.08
303.15 K, x1 = 0.7969 | 1141.46 | 114.2
303.15 K, x1 = 0.9008 | 1153.79 | 187.9
303.15 K, x1 = 1 | 1163.76 | 302.5
308.15 K, x1 = 0.0998 | 898.18 | 2.096
308.15 K, x1 = 0.2003 | 972.66 | 4.072
308.15 K, x1 = 0.3006 | 1022.45 | 7.459
308.15 K, x1 = 0.4016 | 1058.6 | 13.81
308.15 K, x1 = 0.498 | 1084.84 | 22.56
308.15 K, x1 = 0.5996 | 1106.73 | 36.71
308.15 K, x1 = 0.6976 | 1123.77 | 57.39
308.15 K, x1 = 0.7969 | 1137.92 | 86.55
308.15 K, x1 = 0.9008 | 1150.29 | 134.9
308.15 K, x1 = 1 | 1160.28 | 214.6
313.15 K, x1 = 0.0998 | 894.15 | 1.91
313.15 K, x1 = 0.2003 | 968.7 | 3.656
313.15 K, x1 = 0.3006 | 1018.66 | 6.577
313.15 K, x1 = 0.4016 | 1054.91 | 11.92
313.15 K, x1 = 0.498 | 1081.22 | 19.04
313.15 K, x1 = 0.5996 | 1103.16 | 30.14
313.15 K, x1 = 0.6976 | 1120.23 | 45.97
313.15 K, x1 = 0.7969 | 1134.39 | 67.31
313.15 K, x1 = 0.9008 | 1146.78 | 103.7
313.15 K, x1 = 1 | 1156.8 | 157.2
318.15 K, x1 = 0.0998 | 890.12 | 1.746
318.15 K, x1 = 0.2003 | 964.81 | 3.298
318.15 K, x1 = 0.3006 | 1014.86 | 5.839
318.15 K, x1 = 0.4016 | 1051.24 | 10.38
318.15 K, x1 = 0.498 | 1077.62 | 16.26
318.15 K, x1 = 0.5996 | 1099.62 | 25.65
318.15 K, x1 = 0.6976 | 1116.66 | 37.27
318.15 K, x1 = 0.7969 | 1130.88 | 53.38
318.15 K, x1 = 0.9008 | 1143.26 | 79.6
318.15 K, x1 = 1 | 1153.33 | 118.3
323.15 K, x1 = 0.0998 | 886.07 | 1.601
323.15 K, x1 = 0.2003 | 960.91 | 2.99
323.15 K, x1 = 0.3006 | 1011.05 | 5.215
323.15 K, x1 = 0.4016 | 1047.55 | 9.094
323.15 K, x1 = 0.498 | 1074.02 | 14.01
323.15 K, x1 = 0.5996 | 1096.11 | 21.2
323.15 K, x1 = 0.6976 | 1113.14 | 30.75
323.15 K, x1 = 0.7969 | 1127.39 | 43.06
323.15 K, x1 = 0.9008 | 1139.76 | 62.7
323.15 K, x1 = 1 | 1149.87 | 91.22

Reference: the NIST ThermoML archive (doi:10.1021/acs.jced.5b00259)
